In assay [1] the target is Ba/F3 EML4-ALK v1 I1171N/D1203N (Homo sapiens (Human), UniProt Q9HC35+Q9UM73, D1203N/I1171N). Briefly: Ba/F3 cell proliferation assay, EML4-ALK v1 I1171N/D1203N. It is filed as cell-based. The following applies: for IC50: Ba/F3 stable cells, 72 hours, CellTiter-Glo; for ETV6-TRKB / EML4-ALK v1 I1171N/D1203N / Selectivity for Ba/F3 EML4-ALK v1 I1171N-D1203N IC50 over Ba/F3 ETV6-TRKB IC50: TRKB selectivity, ratio of Ba/F3 IC50 values; for Selectivity for Ba/F3 EML4-ALK v1 I1171N-D1203N IC50 over Ba/F3 ETV6-TRKB IC50: Table 6 bins. From the text:
(§1) Genes encoding EML4-ALK v1 (variant 1), EML4-ALK v1 G1202R, EML4-ALK v1 I1171IN, EML4-ALK v1 D1203N, EML4-ALK v1 I1171N/D1203N, and ETV6-TRKB were synthesized at GeneRay, cloned into the retroviral construct pMSCV-puro (Biovector), and packaged into retroviral particles. The virus was used to infect Ba/F3 cells (RIKEN) at multiplicity of infection=1 for 1 day. Infected cells were rescued in media (RPMI-1640 with 10% fetal bovine serum and 1% streptomycin and penicillin) supplemented with mouse IL-3 (10 ng/mL) for 2 days, and stable cell lines were selected by IL-3 withdrawal and puromycin (0.8 μg/mL) for 7 days. Monoclones were selected by single-cell dilution in IL-3-free medium containing puromycin (0.8 μg/mL). Transformation of desired genes was confirmed by Sanger sequencing and western blot using the following antibodies: ALK (CST #3633) and pan-TRK (Abcam #76291).
(§2) Stable cells were plated in a 384-well plate. Test compounds were then added in a 3-fold dilution series and incubated for 72 hours. CellTiter-Glo reagent (Promega) was added. Luminescence was measured on a plate reader. Half-maximal inhibitory concentration (ICso) was calculated from percent inhibition and inhibitor concentration using four-parameter logistic regression. Compound potency can be interpreted by binning IC50 values: bin A for high potency, 0.1 nM IC50<50 nM; bin B for medium potency, 50 nM<IC50<500 nM; and bin C for low potency, IC50>500 nM. […] Exemplary data is given in Table 4 (nd is not determined).
(§3) Ba/F3 proliferation is driven by the transduced oncogenes in the same way that cancer cell proliferation in humans is driven by the expression of equivalent oncogenes.
TRKB selectivity was calculated by dividing a compound's TRKB potency by its primary target potency (e.g., ETV6-TRKB IC50/EML4-ALK v1 IC50). Compound selectivity can be interpreted by binning ratio values: bin A for very high selectivity, ratio≥30-fold; bin B for high selectivity, ratio≥10-fold but<30; bin C for moderate selectivity, ratio≥1 but<10; and bin D for low selectivity, ratio<1. […] (nd=not determined).
Additional exemplified compounds were also tested against ALK-INDN and TRKB. The TRKB selectivity was calculated by dividing a compound's TRKB potency by its primary target potency (e.g., ETV6-TRKB IC50/EMIL4-ALK I1171N-D1203N v1 IC50). Compound selectivity can be interpreted by binning ratio values: bin AA for the selectivity with the ratio≥30-fold; bin BB for the selectivity with the ratio≥10-fold but<30; bin CC for the selectivity with the ratio≥5 but<10; bin DD for the selectivity with the ratio≥1 but<5; and bin EE for the selectivity with the ratio<1.

The target of another assay is Ba/F3 ETV6-TRKB (Homo sapiens, UniProt Q16620). Put plainly: Ba/F3 cell proliferation assay, ETV6-TRKB. It is filed as cell-based. To be noted: Ba/F3 stable cells, 72 hours, CellTiter-Glo; read-out: ETV6-TRKB IC50.
Ba/F3 ETV6-TRKB, sequence (Q16620 32-822 limits assumed, change not shown): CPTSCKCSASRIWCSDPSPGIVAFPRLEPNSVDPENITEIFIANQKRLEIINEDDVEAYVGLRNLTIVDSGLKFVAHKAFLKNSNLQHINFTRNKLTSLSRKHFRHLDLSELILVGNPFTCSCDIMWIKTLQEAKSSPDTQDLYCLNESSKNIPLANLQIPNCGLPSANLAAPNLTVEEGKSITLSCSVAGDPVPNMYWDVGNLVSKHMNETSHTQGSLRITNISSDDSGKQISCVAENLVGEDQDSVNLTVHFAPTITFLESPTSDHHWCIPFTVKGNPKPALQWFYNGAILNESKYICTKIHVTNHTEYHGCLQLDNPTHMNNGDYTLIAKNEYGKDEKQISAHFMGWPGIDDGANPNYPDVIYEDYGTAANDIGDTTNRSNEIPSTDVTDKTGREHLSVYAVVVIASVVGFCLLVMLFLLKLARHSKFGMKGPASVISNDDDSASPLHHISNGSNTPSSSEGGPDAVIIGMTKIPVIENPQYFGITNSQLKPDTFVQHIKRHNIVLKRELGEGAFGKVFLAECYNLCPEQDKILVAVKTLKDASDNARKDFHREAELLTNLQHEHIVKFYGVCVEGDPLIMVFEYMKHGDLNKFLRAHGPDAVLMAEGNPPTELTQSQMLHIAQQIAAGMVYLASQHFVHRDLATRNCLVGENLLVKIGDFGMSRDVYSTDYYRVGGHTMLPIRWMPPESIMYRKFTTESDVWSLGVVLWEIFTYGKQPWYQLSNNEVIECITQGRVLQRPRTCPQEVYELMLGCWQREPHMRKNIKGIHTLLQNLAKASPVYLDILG
Text: as §1, §2, §3

A value given as a limit tells only on which side of the number the result lay.

The text below walks through data of US20250326769A1, “HETEROAROMATIC MACROCYCLIC ETHER CHEMOTHERAPEUTIC AGENTS” (Nuvalent, Inc., priority 2022, published 2025).

In general, IC50 refers to the midpoint of a concentration-inhibition curve.

Ba/F3 EML4-ALK v1 I1171N/D1203N, sequence (Q9UM73 other isoform, or with tags, fused parts or gaps I1171N/D1203N): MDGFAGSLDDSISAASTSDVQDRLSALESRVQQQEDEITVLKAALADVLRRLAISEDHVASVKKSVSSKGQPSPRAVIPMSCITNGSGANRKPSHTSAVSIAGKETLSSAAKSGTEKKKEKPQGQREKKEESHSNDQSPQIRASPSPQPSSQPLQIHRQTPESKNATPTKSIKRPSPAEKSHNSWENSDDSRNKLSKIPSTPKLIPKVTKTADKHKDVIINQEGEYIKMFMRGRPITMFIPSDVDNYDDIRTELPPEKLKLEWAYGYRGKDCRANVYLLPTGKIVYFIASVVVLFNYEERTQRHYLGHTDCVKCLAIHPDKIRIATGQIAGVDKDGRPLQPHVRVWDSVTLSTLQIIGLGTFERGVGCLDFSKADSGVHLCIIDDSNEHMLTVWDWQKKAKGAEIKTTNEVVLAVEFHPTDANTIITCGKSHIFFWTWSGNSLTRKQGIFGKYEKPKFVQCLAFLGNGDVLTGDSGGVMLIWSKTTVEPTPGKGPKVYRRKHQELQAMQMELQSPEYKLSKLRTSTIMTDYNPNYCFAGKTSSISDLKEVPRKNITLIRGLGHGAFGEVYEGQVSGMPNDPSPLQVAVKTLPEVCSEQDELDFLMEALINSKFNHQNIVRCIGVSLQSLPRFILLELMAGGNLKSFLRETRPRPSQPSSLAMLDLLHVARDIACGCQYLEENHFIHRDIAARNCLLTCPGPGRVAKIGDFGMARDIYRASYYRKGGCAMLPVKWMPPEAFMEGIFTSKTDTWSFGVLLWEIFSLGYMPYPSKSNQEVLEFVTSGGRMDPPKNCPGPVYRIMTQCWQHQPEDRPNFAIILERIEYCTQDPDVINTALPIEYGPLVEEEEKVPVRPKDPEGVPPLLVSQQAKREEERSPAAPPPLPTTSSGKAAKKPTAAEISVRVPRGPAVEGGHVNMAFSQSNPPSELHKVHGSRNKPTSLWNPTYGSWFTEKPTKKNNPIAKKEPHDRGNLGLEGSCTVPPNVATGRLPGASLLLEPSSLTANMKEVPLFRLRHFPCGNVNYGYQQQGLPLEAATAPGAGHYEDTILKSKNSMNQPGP

For the compound `C[C@H]1Oc2cc(cnc2N)-c2c(C#N)nn(C)c2C(=O)c2cccnc2-c2c(F)cc(F)cc21` [Example 22, (R)-23-amino-15,17-difluoro-5-methyl-20-methyl-7-oxo-21-oxa-4,5,12,24-tetraazapentacyclo[20.3.1.0^2,^6.0^8,^13.0^14,^19]hexacosa-1(25),2(6),3,8,10,12,14,16,18,22(26),23-undecaene-3-carbonitrile], in assay [1], the IC50 was 0.1 to 50 nM; the “ETV6-TRKB / EML4-ALK v1 I1171N/D1203N” value is on record as “A (bin A for very high selectivity, ratio≥30-fold)”; the “Selectivity for Ba/F3 EML4-ALK v1 I1171N-D1203N IC50 over Ba/F3 ETV6-TRKB IC50” value (shortened to “Selectivity”) was “AA (bin AA for the selectivity with the ratio≥30-fold)”. Also, the half-inhibitory concentration (IC50) on Ba/F3 ETV6-TRKB is greater than 500 nM. As to `C[C@H]1Oc2cc(cnc2N)-c2c(CC3CC3)nn(C(=O)N(C)C)c2Cc2cn(C)nc2-c2c(F)cc(F)cc21` [Example 23, (19R)-22-amino-3-(cyclopropylmethyl)-14,16-difluoro-N,N,10,19-tetramethyl-20-oxa-4,5,10,11,23-pentaazapentacyclo[19.3.1.0^2,6.0^8,12.0^13,18]pentacosa-1(24),2(6),3,8,11,13,15,17,21(25),22-decaene-5-carboxamide], the IC50 in assay [1] is 50 to 500 nM; at Ba/F3 ETV6-TRKB it was greater than 500 nM. Further, the “ETV6-TRKB / EML4-ALK v1 I1171N/D1203N” value in assay [1] is recorded as “A (bin A for very high selectivity, ratio≥30-fold)”. With `CCc1nn(C(=O)N(C)C)c2c1-c1cnc(N)c(c1)O[C@H](C)c1cc(F)ccc1-c1ncccc1C2` [Example 24, (R)-5-(N,N-dimethylcarbamoyl)-3-ethyl-17-fluoro-20-methyl-21-oxa-4,5,12,24-tetraazapentacyclo[20.3.1.0^2,^6.0^8,^13.0^14,^19]hexacosa-1(25),2(6),3,8(13),9,11,14,16,18,22(26),23-undecaen-23-ylamine], the IC50 (in assay [1]; at Ba/F3 ETV6-TRKB) was 0.1 to 50 nM each time. Moreover, the “ETV6-TRKB / EML4-ALK v1 I1171N/D1203N” value in assay [1] is on record as “C (bin C for moderate selectivity, ratio≥1 but<10)”. `C[C@H]1Oc2cc(cnc2N)-c2c(C#N)nn(C)c2C(=O)c2cccnc2-c2ccc(F)cc21` [Example 25, (R)-23-amino-17-fluoro-5-methyl-20-methyl-7-oxo-21-oxa-4,5,12,24-tetraazapentacyclo[20.3.1.0^2,^6.0^8,^13.0^14,^19]hexacosa-1(25),2(6),3,8(13),9,11,14,16,18,22(26),23-undecaene-3-carbonitrile]: in assay [1], the IC50 was 0.1 to 50 nM; the “ETV6-TRKB / EML4-ALK v1 I1171N/D1203N” value is on record as “A (bin A for very high selectivity, ratio≥30-fold)”; the “Selectivity” value is “AA (bin AA for the selectivity with the ratio≥30-fold)”. For the same compound, the IC50 at Ba/F3 ETV6-TRKB is greater than 500 nM. Consider `C[C@H]1Oc2cc(cnc2N)-c2c(C#N)nn(C)c2C(=O)c2cn(C)nc2-c2c(F)cc(F)cc21` [Example 28, (R)-22-amino-14,16-difluoro-5,10-dimethyl-19-methyl-7-oxo-20-oxa-4,5,10,11,23-pentaazapentacyclo[19.3.1.0^2,^6.0^8,^12.0^13,^18]pentacosa-1(24),2(6),3,8,11,13,15,17,21(25),22-decaene-3-carbonitrile], for which, in assay [1], the IC50 is 50 to 500 nM and the “ETV6-TRKB / EML4-ALK v1 I1171N/D1203N” value is given as “A (bin A for very high selectivity, ratio≥30-fold)”. The 50% inhibitory concentration (IC50) at Ba/F3 ETV6-TRKB is greater than 500 nM. For `CC(C)N(C)C(=O)c1nn(CC2CC2)c2c1Cc1cn(C)nc1-c1ccc(F)cc1[C@@H](C)Oc1cc-2cnc1N` [Example 37, N-isopropyl-N-methyl-(R)-22-amino-3-(cyclopropylmethyl)-16-fluoro-10-methyl-19-methyl-20-oxa-3,4,10,11,23-pentaazapentacyclo[19.3.1.0^2,^6.0^8,^12.0^13,^18]pentacosa-1(24),2(6),4,8,11,13,15,17,21(25),22-decaene-5-carboxamide], the IC50 was 50 to 500 nM in assay [1] and greater than 500 nM at Ba/F3 ETV6-TRKB.

As for `C[C@H]1Oc2cc(cnc2N)-c2c(nn(C)c2C#N)Oc2cccnc2-c2ccc(F)cc21` [Example 59, (R)-23-amino-17-fluoro-4-methyl-20-methyl-7,21-dioxa-4,5,12,24-tetraazapentacyclo[20.3.1.0^2,^6.0^8,^13.0^14,^19]hexacosa-1(25),2,5,8(13),9,11,14,16,18,22(26),23-undecaene-3-carbonitrile], in assay [1], the IC50 was 0.1 to 50 nM and the “ETV6-TRKB / EML4-ALK v1 I1171N/D1203N” value is on record as “B (bin B for high selectivity, ratio≥10-fold but<30)”. Besides, at Ba/F3 ETV6-TRKB, the IC50 fell in the range of 50 to 500 nM.

As to `C[C@H]1Oc2cc(cnc2N)-c2c(nn(C)c2C#N)Cc2cccnc2-c2c(F)cc(F)cc21` [Example E1, reference compound], in assay [1], the “Selectivity” value was “BB (bin BB for the selectivity with the ratio≥10-fold but<30)”. With `C[C@H]1Oc2cc(cnc2N)-c2c(C#N)nn(C)c2Cc2cccnc2-c2c(F)cc(F)cc21` [Example E2, reference compound], in assay [1], the “Selectivity” value is on record as “DD (bin DD for the selectivity with the ratio≥1 but<5)”.

On to `Cc1cc2n(n1)-c1ccc(F)cc1[C@@H](C)Oc1cc(cnc1N)-c1c(C#N)nn(C)c1C2` [Example E3, reference compound], for which the “Selectivity” value in assay [1] is on record as “EE (bin EE for the selectivity with the ratio<1)”.

Consider `CCn1ncc2c1-c1cnc(N)c(c1)O[C@H](C)c1cc(F)ccc1-c1nn(C)cc1C2` [Example E4, reference compound], for which the “Selectivity” value in assay [1] is listed as “EE (bin EE for the selectivity with the ratio<1)”. Still for that read-out and setting: the result for `CC(C)n1nc2c(c1C#N)-c1cnc(N)c(c1)O[C@H](C)c1cc(F)ccc1-c1ncccc1C2` [Example E5, reference compound] reads “CC (bin CC for the selectivity with the ratio≥5 but<10)”; that for `Cc1nc2c(s1)Cc1c(c(C#N)nn1C)-c1cnc(N)c(c1)O[C@H](C)c1cc(F)ccc1-2` [Example E6, reference compound], “EE (bin EE for the selectivity with the ratio<1)”; that for `C[C@H]1Oc2cc(cnc2N)-c2c(nn(C)c2C#N)Cc2cccnc2-c2ccc(F)cc21` [Example E7, reference compound], “CC (bin CC for the selectivity with the ratio≥5 but<10)”. With `C[C@H]1Oc2cc(cnc2N)-c2c(C#N)nn(C)c2Cc2cccnc2-c2ccc(F)cc21` [Example E8, reference compound], the “Selectivity” value in assay [1] is listed as “DD (bin DD for the selectivity with the ratio≥1 but<5)”. With `CCn1ncc2c1-c1cnc(N)c(c1)O[C@H](C)c1cc(F)ccc1-c1ncccc1C2` [Example E10, reference compound], in assay [1], the “Selectivity” value is given as “EE (bin EE for the selectivity with the ratio<1)”. The same measure, in the same setting: next, `C[C@H]1Oc2cc(cnc2N)-c2c(cnn2CC2CC2)Cc2cccnc2-c2ccc(F)cc21` [Example E11, reference compound]: “DD (bin DD for the selectivity with the ratio≥1 but<5)”; `CCn1nc2c(c1C#N)-c1cnc(N)c(c1)O[C@H](C)c1cc(F)ccc1-c1ncccc1C2` [Example E12, reference compound]: “CC (bin CC for the selectivity with the ratio≥5 but<10)”. As to `C[C@H]1Oc2cc(cnc2N)-c2c(nn(C)c2C#N)Cc2cn(C)nc2-c2c(F)cc(F)cc21` [Example E13, reference compound], the “Selectivity” value in assay [1] was “BB (bin BB for the selectivity with the ratio≥10-fold but<30)”.
